The values that follow come from PubChem BioAssay AID977606 (Broad Institute, 2014).

The source made the active and inactive calls. How the calls were made is not given here.

The subject of the assay is INS-1E Gaussia luciferase insulin secretion, no glucose, luminescence. In words: insulin secretion activators without glucose, dose response, counter-screen for glucose-dependent insulin secretion activators, cell-based, INS-1E, Gaussia luciferase, luminescence, cherry-pick (AID 977606). (A counterscreen serves to expose hits that act by an unwanted route or on another target.)

Consider `Cc1ccc(S(=O)(=O)N2C[C@@H]3N[C@H](C2)C3c2ccc(/C=C/c3ccccc3)cc2)cc1` (stereo not given in full), for which the AC40 was 4.56 µM.
Take `CC1(Cc2cc(Cl)ccc2C(F)(F)F)C(=O)Nc2cc(C(F)(F)F)ccc21` (stereo not given): the AC40 is 12.4 µM.
The figure for `O=C(NCc1ccccn1)c1coc(=O)c(Br)c1` is 1.59 µM; for `COc1ccc2nc3ccccc3nc2c1NC(=O)c1ccc(Cl)cc1Cl` it is 5.1 µM.
The same measure for `CS(=O)(=O)N1CCN(c2ccc(NC(=O)c3ccc(-c4ccc(Cl)cc4)o3)cc2)CC1`: 9.12 µM; for `O=C(NCC1OCCc2ccccc21)c1ccc(NC(=O)c2ccc(Cl)cc2Cl)cc1` (stereo not given): 17.9 µM.
Turning to `CCN(Cc1ccccc1)S(=O)(=O)c1ccc(C(=O)Nc2nnc(C)o2)cc1`, the AC40 was 0.0558 µM.
In the case of `CCC(=O)Nc1ccc(Cl)c(NC(=S)NC(=O)COc2ccc(Cl)cc2)c1`, the AC40 was 5.38 µM.
The same measure for `CC(C)CSc1nc2c(c(=O)[nH]c(=O)n2C)n1CCc1ccccc1`: 9.29 µM; for `Fc1cccc(CN2C[C@@H]3N[C@H](C2)[C@@H]3c2ccc(-c3cccc(F)c3)cc2)c1`: 4.89 µM; for `CC(=O)Oc1ccc(Cl)cc1/C=C/c1ccc2ccccc2n1`: 9.46 µM.
The figure for `C=CCn1c(SCc2ccccc2)nc2c1c(=O)[nH]c(=O)n2C` is 21.2 µM; for `CCCc1nc2ccccc2c(=O)n1CC(=O)c1ccc(OC)cc1` it is 5.72 µM.
On to `COC(=O)c1ccc(C(=O)Nc2cc(Cl)ccc2Cl)cc1NC(=O)c1ccccc1C`, for which the AC40 was 1.39 µM.
Regarding `CC(C)CC#Cc1ccc2c(c1)O[C@@H](CN(C)Cc1cccc(F)c1)[C@H](C)CN([C@@H](C)CO)S2(=O)=O`, the AC40 is 12.7 µM.
Consider `Clc1ccc(/C=N/NC2=Nc3cccc4cccc2c34)cc1`, for which the AC40 was 2.88 µM.
Consider `Cc1nnn(-c2nonc2N)c1C(=O)N/N=C/c1cccc2ccccc12`, for which the AC40 was 6.5 µM.
Take `Cc1ccc(CNc2nc(NCc3ccccc3)nc3ccsc23)c(C)c1`: the AC40 is 5.58 µM.
On to `N#Cc1cccc(Oc2ccc(-c3cnc4ccccc4n3)cc2)c1C#N`, for which the AC40 was 9.37 µM.
The figure for `C[C@@H]1CN([C@@H](C)CO)C(=O)c2cc(Br)cnc2O[C@H]1CN(C)C(=O)C1CC1` is > 35 µM (inactive).
Consider `Cc1cc(C)c2nc(N(CCCN(C)C)C(=O)c3ccc4c(c3)CCCC4)sc2c1`, for which the AC40 is 7.77 µM.
The figure for `COc1ccc(C2=NN(C(C)=O)C(c3cccs3)C2)cc1OC` (stereo not given) is > 35 µM (inactive); for `O=C(Cn1cnc2c(OCc3ccccc3)ncnc21)NCc1ccccn1` it is 31.1 µM; for `CC(C)(C(=O)N1CCC1(C)C(=O)NS(=O)(=O)c1cccc(Cl)c1)c1ccccc1` (stereo not given) it is 3.65 µM.
Turning to `CC(C)(C)c1nc2ccc(Cl)cn2c1CC1CCCCC1`, the AC40 was 13.2 µM.
The figure for `CCCCc1c(Cc2cccc(F)c2)ncn1CCc1ccccc1OC` is 4.98 µM.
In the case of `CCOC(=O)c1cnc2c(Cl)c(Cl)ccc2c1NCCN1CCOCC1`, the AC40 was 26.5 µM.
Turning to `Cc1cc(NC(=O)c2ccccc2F)n(-c2nc3ccccc3[nH]2)n1`, the AC40 was 4.6 µM.
For the compound `CC(C)(C)OC(=O)N[C@@H](Cc1ccccc1)c1nnc(S(=O)(=O)Cc2ccccc2)o1`, the AC40 was 2.63 µM.
Turning to `Cc1[nH]c2ccc(OC(F)(F)F)cc2c1CCNCc1ccc(Cl)cc1`, the AC40 is 5.89 µM.
As for `COC(=O)c1ccc2c(c1)NC(=O)C(N(CC(C)C)CC(C)C)S2` (stereo not given), the AC40 was 2.51 µM.
Take `OC(CNCCc1ccc(C(F)(F)F)cc1)COc1cccc2ccccc12` (stereo not given): the AC40 is 4.92 µM.
Consider `O=C(COc1ccc2c(c1)OCO2)Nc1ccc2c(c1)oc1ccccc12`, for which the AC40 was 12.2 µM.
On to `CCCCc1nc(NCCN)c(C#N)c2c1CSC(C)(C)C2`, for which the AC40 is 11.6 µM.
The same measure for `CC(C)(C)c1ccccc1OCC(O)CN1CCN(c2ccccn2)CC1` (stereo not given): 13 µM.
For `Cc1cc(C)nc(NS(=O)(=O)c2ccc(N/C=C/C(=O)c3ccc(Cl)c(Cl)c3)cc2)n1`, the AC40 was 4.44 µM.
In the case of `NC(N)=N/N=C/c1ccc(OCc2ccccc2Cl)cc1`, the AC40 is 12.3 µM.
Turning to `CN(Cc1ccccc1)C(=S)NC(=O)c1ccc(-c2ccccc2)cc1`, the AC40 was 24 µM.
Take `CCc1ccc(-c2c(C)sc(NC(=O)C3CCC3)c2C#N)cc1`: the AC40 was > 35 µM (inactive).
As to `CCC(C)c1ccccc1OCCCN(C)Cc1ccccc1` (stereo not given), the AC40 is 9.93 µM.
For the compound `Cc1ccc(/C=N/NC(=O)COc2ccccc2-c2ccccc2)cc1`, the AC40 is 4.99 µM.
Consider `CCOc1cc(/C=N/NC(=O)CCn2nc(C)cc2C)ccc1O`, for which the AC40 is 21.9 µM.
On to `CN(Cc1c(C(=O)N/N=C/c2ccccc2O)nnn1-c1nonc1N)C1CCCCC1`, for which the AC40 is 5.83 µM.
The figure for `COc1cc(/C=N/NC(=O)Nc2ccccc2)ccc1OCCOc1ccccc1C` is 1.92 µM.
For the compound `COc1ccc(CCNC(=O)C(=O)NN=C2CCCCCCC2)cc1OC`, the AC40 is 21.7 µM.
For the compound `COc1cc(NC(=O)c2cccc(C)c2)ccc1NC(=O)c1cc2ccccc2o1`, the AC40 is 2.21 µM.
Consider `CN1CCN(CC(O)COC(c2ccc(Cl)cc2)c2ccc(Cl)cc2)CC1` (stereo not given), for which the AC40 was 13.3 µM.
Turning to `O=c1[nH]c(/C=C/c2ccc(OC(F)F)cc2)nc2c1cnn2-c1ccccc1`, the AC40 was 25.6 µM.
On to `CC(C)(C)c1cc(NCCCn2ccnc2)n2ncc(-c3ccc(Cl)cc3)c2n1`, for which the AC40 was 4.39 µM.
For `COc1ccccc1CCn1cnc(-c2cccc(F)c2)c1CC(C)C`, the AC40 was 8.26 µM.
As for `CCOc1cc(N2CCOCC2)c(OCC)cc1NC(=O)COC(=O)c1cc2ccccc2cc1O`, the AC40 was 4.74 µM.
Regarding `CCOC(=O)[C@]12Cc3cc(OC)ccc3[C@H]1N(C1CCCCC1)C(=O)c1cc(OC)ccc12`, the AC40 is 11.7 µM.
On to `O=c1c(C=Nc2ccc(Oc3ccccc3)cc2)c[nH]n1-c1cccc(Cl)n1`, for which the AC40 is 4.28 µM.
As for `COc1ccc(/C=N/Nc2nc(-c3ccc(Cl)cc3)cc(C(F)(F)F)n2)c(OC)c1`, the AC40 is 12.2 µM.
With `Cc1ccc(OCC(=O)NC(=S)Nc2cccc(NC(=O)c3ccccc3)c2)cc1`, the AC40 was 8.85 µM.
With `O=c1c2ccc(Cl)cc2[nH]c(=S)n1CCC1=CCCCC1`, the AC40 is 2.15 µM.
In the case of `COc1cccc(-c2cc(C(=O)Nc3cc(C)on3)no2)c1`, the AC40 was 10.7 µM.
The same measure for `COc1ccc(C(=O)Cc2ccc3c(c2)OCO3)c(O)c1`: 25 µM.
`CC(NCC(O)COCCC12CC3CC(CC(C3)C1)C2)c1ccccc1` (stereo not given): the AC40 is 8.21 µM.
The same measure for `O=C(Nc1ccc(C(F)(F)F)cc1)N1C[C@@H]2N[C@H](C1)C2c1ccc(-c2ccccc2)cc1` (stereo not given in full): 8.46 µM; for `COc1ccc(NC(=O)Cc2c(SC)c3ccccc3n2Cc2ccccc2)cc1`: 12.5 µM.
On to `CN(C)c1nc(=NCc2cccs2)ss1`, for which the AC40 was 1.19 µM.
As to `CC1CCC(C(C)C)C(OCC(O)CNC(C)c2ccccc2)C1` (stereo not given), the AC40 was 11.8 µM.
Turning to `Cc1ccc(NC(=O)c2oc3ccc(S(=O)(=O)N4CCOCC4)cc3c2C)cc1C`, the AC40 was 7.57 µM.
Regarding `Cc1ccc(C(=O)c2sc3nc4c(cc3c2N)CCC4)cc1`, the AC40 was 11.3 µM.
`COc1ccc(Br)cc1C(=O)Nc1cc(C)cc(C)c1`: the AC40 is 6.69 µM.
For the compound `O=C(c1ccc(F)cc1)N1C[C@@H]2N[C@H](C1)C2c1ccc(/C=C/c2ccccc2)cc1` (stereo not given in full), the AC40 was > 11 µM (inactive).
As for `CCCCCCCCN1C(=O)[C@@H](CC(=O)N2CCN(C(=O)c3ccco3)CC2)C[C@@]2(C(=O)OC)C1=C[C@H](C1CCCC1)O[C@@H]2C`, the AC40 is 9.46 µM.
As to `NC1=NC[C@H](c2ccccc2)N1CCCCC1CCCCC1`, the AC40 was 17.4 µM.
As for `NC(c1csc(NC(=O)Nc2cccc(C(F)(F)F)c2)n1)C1CCCCC1` (stereo not given), the AC40 is 6.68 µM.
The figure for `COCCOc1ccc(C(F)(F)F)cc1NC(=O)c1ccccc1F` is 7.89 µM.
Turning to `NC(N)=N/N=C/c1ccc(N(c2ccccc2)c2ccccc2)cc1`, the AC40 is 4.06 µM.
As to `O=C(CCN1CCOCC1)c1ccccc1`, the AC40 was 10.3 µM.
With `OC(CNCCC1C=Nc2ccccc21)Cn1c2ccc(Cl)cc2c2cc(Cl)ccc21` (stereo not given), the AC40 was 9.56 µM.
As for `Cc1ccc(NC(=O)c2cc(-c3ccccc3O)n[nH]2)cc1C`, the AC40 is > 35 µM (inactive).
`OC(CNCCc1ccc(C(F)(F)F)cc1)COC(c1ccccc1)c1ccccc1` (stereo not given): the AC40 was 4.72 µM.
Regarding `CCOC(=O)c1cc2sccc2n1CC(=O)N1c2ccccc2CC1C` (stereo not given), the AC40 is 5.99 µM.
The same measure for `Cc1cccc(Cn2ccc(-c3ccc(Cl)cc3)c(C#N)c2=O)c1`: 3.46 µM.
`O=C(Nc1nnc(-c2ccccc2SCc2ccccc2F)s1)Nc1ccccc1F`: the AC40 is 12.8 µM.
As for `CCc1nc2ccc(C(=O)NCCCN3CCCC3=O)cn2c1N(CCC(C)C)CCN(C)C`, the AC40 is > 35 µM (inactive).
Regarding `Cn1c(=O)oc2cc(S(=O)(=O)N3CCC(C(=O)Nc4ccc(OC(F)(F)F)cc4)CC3)ccc21`, the AC40 was 5.04 µM.
As for `CS(=O)(=O)c1cnc(-c2ccccc2)nc1Oc1ccc(F)cc1`, the AC40 was 10.9 µM.
On to `COc1cc(OC)c2c(-c3ccccc3)cc(C3CCCCC3)nc2c1`, for which the AC40 was 12.1 µM.
For the compound `N#Cc1cccc(-c2ccc(C3[C@H]4CNC[C@@H]3N4Cc3cc(-c4ccccc4)on3)cc2)c1` (stereo not given in full), the AC40 is 9.78 µM.
For the compound `CCCCc1c(-c2ccccc2F)ncn1CCc1ccccc1OC`, the AC40 is 9.38 µM.
Consider `Cc1ccccc1-c1ccc(C2[C@@H]3CN(C(=O)Nc4cccc(F)c4)C[C@H]2N3)cc1` (stereo not given in full), for which the AC40 was 7.52 µM.
Consider `Cc1ccc(C(=O)Oc2ccc(-c3nccc(-c4ccccn4)n3)cc2)cc1`, for which the AC40 is 5.1 µM.
Regarding `COc1ccc(C(CCNCc2ccc(OC(C)C)cc2)C(C)C)cc1` (stereo not given), the AC40 is 12.3 µM.
The figure for `Cc1cc(C)cc(OCCCN2CCC(C(O)(c3ccccc3)c3ccccc3)CC2)c1` is 6.87 µM.
For `CCOc1cccc(-c2csc(C3COc4ccccc4O3)n2)c1` (stereo not given), the AC40 is 5.47 µM.
For `OC1(C#Cc2c(-c3ccsc3)sc3ccccc23)CCCCC1`, the AC40 is 13.3 µM.
The figure for `CC(=O)Nc1cc(-c2cccc(C(=O)NCCN(C)C)c2)cn2c(-c3cccc(C(F)(F)F)c3)cnc12` is 8.13 µM.
Turning to `Cc1cccc(S(=O)(=O)N2CCCCN3[C@@H](CO)[C@@H](c4ccc(C#CC(C)C)cc4)[C@@H]3C2)c1`, the AC40 was 7.76 µM.
Consider `NCCCNC(=S)NCCCN(Cc1ccc(Cl)cc1)c1ccc(Br)cn1`, for which the AC40 is 23.4 µM.
The figure for `N/C(=N\OC(=O)COc1ccc(Cl)cc1Cl)c1cccnc1` is 19.3 µM.
